According to patent US20060040255A1, “Cell line designated KT-1 established from tongue epithelial and use thereof” (National Food Research Institute, priority 2003, published 2006):

Tests used:
[1] = test system: salt taste channel αENaC; experiment: Hormone regulation of αENaC expression in cell line KT-1B (RT-PCR); assay type: cell-based, mouse; settings: cell line KT-1B treated for 6 days; aldosterone 1 μM, hydrocortisone 0.2 μM; compared with progesterone 0.1 μM
Protocol: While being cultured in the presence of hydrocortisone, cell line KT-1B constantly expresses the amiloride-sensitive sodium channel alpha subunit (αENaC), which might be involved in salt taste response.
Therefore, cell line KT-1B was treated for 6 days with the hormone progesterone (0.1 μM), aldosterone (1 μM) or hydrocortisone (0.2 μM), and expression of the salt sensing channel αENaC was investigated.
RNA was extracted with Trizol solution from the treated cell line KT-1B, and cDNA was synthesized on a scale of 40 μl using the resulting 2 μg of RNA and a Super Script First Strand cDNA synthesis kit. Using 1 μl of this cDNA as the template and primers specific to salt taste channel αENaC (0.2 μM each, Seq. Nos. 13 and 14), 2.5 units of Takara Taq were added and a PCR reaction consisting of denaturation at 95° C. for 5 minutes followed by 35 cycles of 1 minute at 95° C., 1 minute at 58° C. and 2 minutes at 72° C. was performed in a 25 μl system. 8 μl of the PCR reaction liquid was electrophoresed on a 1.5% agarose gel, stained with ethidium bromide and photographed.

[2] = target: salt sensing channel αENaC (Mus musculus, UniProt Q61180); settings: KT-1C cells
Protocol: Next they were washed twice with Na imaging buffer to remove any CoroNa-Red that had not been incorporated into the cells.
Next, the dish was filled with 1 mL of imaging buffer to which 1 mM MgCl2 and 2 mM CaCl2 had been added, and NaCl, which is known to be a salt taste channel ligand, was then added thereto to a final concentration of 50 mM. It is known that when cells with salt taste response ability (in other words, cells in which the salt sensing channel αENaC is functionally expressed) respond to NaCl (salty substance), sodium flows into the cytoplasm, and the concentration of sodium in the cytoplasm rises. Therefore, the fluorescence (580 nm) produced by CoroNa-Red when sodium flowed into the cytoplasm due to addition of NaCl was measured over time using an inverted fluorescence microscope (Leica, DMRIB) equipped with a CCD camera (Hamamatsu Photonics) controlled by AquaCosmos software (Hamamatsu Photonics). After measurement, changes over time inflorescence in the various cells were converted to changes in sodium concentration using the AquaCosmos software, and graphed.

[3] = target: sweet taste receptors T1r2 and T1r3 (Mus musculus, UniProt Q925D8+Q925I4); settings: KT-1C cells; final concentration 5 mM; 0.5 minutes after addition
Chain of sweet taste receptors T1r2 and T1r3 (Q925I4 20-843): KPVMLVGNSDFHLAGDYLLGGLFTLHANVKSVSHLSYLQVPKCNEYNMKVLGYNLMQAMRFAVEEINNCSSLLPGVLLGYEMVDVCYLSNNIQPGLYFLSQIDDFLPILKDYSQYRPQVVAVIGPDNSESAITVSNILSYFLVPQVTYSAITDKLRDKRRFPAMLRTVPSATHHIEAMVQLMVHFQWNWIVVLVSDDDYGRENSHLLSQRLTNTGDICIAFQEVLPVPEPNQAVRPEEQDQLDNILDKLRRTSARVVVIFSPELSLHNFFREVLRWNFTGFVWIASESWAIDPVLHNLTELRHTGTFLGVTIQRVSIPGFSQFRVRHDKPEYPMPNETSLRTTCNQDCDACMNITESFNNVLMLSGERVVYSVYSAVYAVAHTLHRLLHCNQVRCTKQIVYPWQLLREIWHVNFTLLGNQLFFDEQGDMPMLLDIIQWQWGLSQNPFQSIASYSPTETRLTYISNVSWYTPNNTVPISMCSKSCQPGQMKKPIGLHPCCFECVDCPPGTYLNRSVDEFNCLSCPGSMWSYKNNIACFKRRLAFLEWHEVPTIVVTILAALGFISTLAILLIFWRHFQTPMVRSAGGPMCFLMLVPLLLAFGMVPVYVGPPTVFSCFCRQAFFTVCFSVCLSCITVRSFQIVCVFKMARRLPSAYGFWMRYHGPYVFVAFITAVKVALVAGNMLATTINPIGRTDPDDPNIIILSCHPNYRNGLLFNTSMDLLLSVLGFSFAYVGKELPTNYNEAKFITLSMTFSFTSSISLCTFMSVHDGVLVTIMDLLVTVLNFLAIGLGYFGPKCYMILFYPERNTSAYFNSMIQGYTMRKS
Chain of sweet taste receptors T1r2 and T1r3 (Q925D8 21-858): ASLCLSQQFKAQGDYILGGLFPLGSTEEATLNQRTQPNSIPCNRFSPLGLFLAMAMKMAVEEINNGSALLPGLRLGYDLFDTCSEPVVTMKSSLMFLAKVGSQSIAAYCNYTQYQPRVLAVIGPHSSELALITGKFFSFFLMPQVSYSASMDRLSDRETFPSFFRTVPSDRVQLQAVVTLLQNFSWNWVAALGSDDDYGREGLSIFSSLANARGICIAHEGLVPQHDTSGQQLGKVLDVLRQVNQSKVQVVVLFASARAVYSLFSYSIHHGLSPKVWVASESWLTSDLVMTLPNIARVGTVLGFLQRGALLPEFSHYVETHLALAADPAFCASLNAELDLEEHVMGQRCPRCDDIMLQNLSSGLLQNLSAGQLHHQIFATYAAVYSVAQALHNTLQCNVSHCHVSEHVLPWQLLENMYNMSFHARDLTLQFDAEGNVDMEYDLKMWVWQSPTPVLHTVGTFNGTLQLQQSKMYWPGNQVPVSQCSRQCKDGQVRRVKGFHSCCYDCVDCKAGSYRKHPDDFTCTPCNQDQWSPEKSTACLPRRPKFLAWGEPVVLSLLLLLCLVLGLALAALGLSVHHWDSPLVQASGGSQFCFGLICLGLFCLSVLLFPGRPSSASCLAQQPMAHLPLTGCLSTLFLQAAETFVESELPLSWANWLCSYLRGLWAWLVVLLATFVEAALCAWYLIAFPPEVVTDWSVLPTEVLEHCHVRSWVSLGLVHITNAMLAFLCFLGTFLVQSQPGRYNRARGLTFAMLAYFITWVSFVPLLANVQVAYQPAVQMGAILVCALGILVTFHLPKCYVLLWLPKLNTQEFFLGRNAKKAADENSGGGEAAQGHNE
Protocol: KT-1C cells which had been washed twice in PBS(−) were incubated for 30 minutes at room temperature with 1 ml of imaging buffer (NaHCO3 22 mM, KCl 5 mM, NaH2PO4 1.25 mM, glucose 10 mM, NaCl 124 mM) to which 5 μl of Fura-2-AM (1 mM dissolved in DMSO, Molecular Probe) and 5 μl of Cremophor (Nacalai Tesque) had been added, incorporating Fura-2-AM into the cells. They were then washed twice with imaging buffer to remove any Fura-2-AM that had not been incorporated into the cells.
Next the dish was filled with 1 ml of imaging buffer to which 1 mM MgCl2 and 2 mM CaCl2 had been added, and the artificial sweetener Acesul fame K (Fluka), which is known to be a ligand for sweet taste receptors T1r2 and T1r3, was added to a final concentration of 5 mM. […] After measurement, changes over time in florescence in the various cells were converted to changes in calcium concentration by the AquaCosmos software, and graphed.

Chain of salt sensing channel αENaC (Q61180 whole entry): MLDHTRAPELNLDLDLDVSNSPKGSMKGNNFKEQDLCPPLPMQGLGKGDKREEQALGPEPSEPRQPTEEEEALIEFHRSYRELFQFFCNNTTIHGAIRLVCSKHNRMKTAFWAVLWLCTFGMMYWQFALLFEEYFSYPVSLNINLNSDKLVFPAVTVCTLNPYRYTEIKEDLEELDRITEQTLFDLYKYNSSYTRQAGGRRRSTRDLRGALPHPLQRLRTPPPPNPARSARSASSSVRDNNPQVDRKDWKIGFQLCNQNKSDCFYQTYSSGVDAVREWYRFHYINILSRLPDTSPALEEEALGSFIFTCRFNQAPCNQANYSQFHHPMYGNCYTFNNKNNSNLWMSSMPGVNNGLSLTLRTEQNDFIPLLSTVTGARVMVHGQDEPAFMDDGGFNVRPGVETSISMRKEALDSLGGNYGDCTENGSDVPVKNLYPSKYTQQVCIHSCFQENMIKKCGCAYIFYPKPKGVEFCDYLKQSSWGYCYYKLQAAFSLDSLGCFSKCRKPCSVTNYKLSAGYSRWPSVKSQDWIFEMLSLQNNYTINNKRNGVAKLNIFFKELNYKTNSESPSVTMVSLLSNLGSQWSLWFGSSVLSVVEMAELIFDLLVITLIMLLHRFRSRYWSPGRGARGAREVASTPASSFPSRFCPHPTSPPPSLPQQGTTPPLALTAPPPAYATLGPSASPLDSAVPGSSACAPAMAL

Structure (SMILES): C[C@]12CCC(=O)C=C1CC[C@@H]1[C@@H]2[C@@H](O)C[C@]2(C=O)[C@@H](C(=O)CO)CC[C@@H]12 [aldosterone]
- amount of expression of the salt taste channel αENaC (mRNA, RT-PCR) [1]: greater

Structure (SMILES): C[C@]12CCC(=O)C=C1CC[C@@H]1[C@@H]2[C@@H](O)C[C@@]2(C)[C@H]1CC[C@]2(O)C(=O)CO [hydrocortisone]
- amount of expression of the salt taste channel αENaC (mRNA, RT-PCR) [1]: greater

Structure (SMILES): [Cl-].[Na+] [NaCl]
- dependence of intercellular sodium concentration on added concentration ([2]; 50 mM then 150 mM added): affected by the concentration of added NaCl
- intercellular sodium concentration (CoroNa-Red fluorescence) after addition ([2]; final concentration 50 mM, 0.5 minutes after addition): rise in intercellular sodium concentration

Structure (SMILES): CC1=CC(=O)[N-]S(=O)(=O)O1.[K+] [Acesulfame K]
- intercellular calcium concentration (Fura-2 fluorescence) after addition [3]: rise in intercellular calcium concentration
